Results taken from PubChem BioAssay AID1963966 (Molecular Pharmacology Branch, DTP, NCI, 2024).
“And” between values parts separate entries of the source, which are not always exact repeats. Equal entries are not always repeated.

Tested on: 935938-334-R-J1-PDC spheroids with HUVEC/MSC, viability
Test: Anticancer human tumor 935938-334-R-J1-PDC patient-derived small intestine adenocarcinoma cell line growth inhibition [PI3K]
Conditions: for viability, T/C: stronger effect = lower value
Text: Combinatorial screen of targeted agents with the PI3K inhibitors inavolisib, alpelisib, duvelisib, and copanlisib in multi-cell type tumor spheroids
A high-throughput screen of multi-cell type tumor spheroids was designed to identify active combinations of targeted small molecules and PI3K pathway inhibitors. Complex spheroids include a stromal component modeled by human endothelial cells (HUVEC) and fibroblasts modeled by human mesenchymal stem cells (MSCs). The concentration ranges selected for each drug and investigational agent were based upon clinically achievable concentrations if the clinical Cmax of the agent was known.
Compounds. The drugs and investigational agents: inavolisib (NSC800729), alpelisib (NSC765974), duvelisib (NSC772469), copanlisib (NSC816437), ipatasertib (NSC767898), afuresertib (NSC778305), talazoparib (NSC767125), sapanisertib (NSC764658), selumetinib (NSC741078), tovorafenib (DAY101, NSC766906), vemurafenib (NSC761431), ravoxertinib (NSC781343), sotorasib (NSC818433), MRTX1133 (NSC 836407), abemaciclib (NSC 768073), palbociclib (NSC758247), venetoclax (NSC 766270), SY5609 (NSC837396), enzalutamide (NSC755605), and darolutamide (NSC825331), were obtained from the National Cancer Institute (NCI) Developmental Therapeutics Program Chemical Repository. The FDA-approved anticancer drug set is available from the NCI Developmental Therapeutics Program. […] The stock solutions were prepared in dimethyl sulfoxide (DMSO, Sigma-Aldrich, St. Louis, MO, cat. D2650) at 800-fold the tested concentration and stored at -70 degrees C prior to their use. All drugs and investigational agents were tested over a range starting from a high concentration at or near the clinical Cmax and decreasing in half-log increments. If the clinical Cmax for an agent had not been determined, the highest concentration tested was 10 microM.
Cell Culture. All cells were maintained in an incubator at 37 degrees C and 5% CO2 with 95% humidity. The PDC lines were cultured according to standard operating procedures established by the NCI PDMR (https://pdmr.cancer.gov/sops/default.htm). All PDCs were thawed and cultured in Matrigel-coated flasks prepared with a working solution of 1X Ham's F-12 nutrient mix, without supplementation (Invitrogen, Waltham, MA, cat. 11765054), 100 U/mL penicillin-streptomycin (Invitrogen, cat. 15140122), and 2.5% Matrigel (Corning Inc., Corning, NY, cat. 354248) for the first three passages. The 354836-022-R-J1-PDC, 475296-252-R-J1-PDC, and 997726-040-R-J2-PDC lines were cultured in 6A media, which includes advanced DMEM/F-12 (Thermo Fisher Scientific, cat. 12634028), 10 mM HEPES (Thermo Fisher Scientific, cat. 15630080), 1X GlutaMAX supplement (Thermo Fisher Scientific, cat. 35050061), 0.1 mg/mL primocin (InvivoGen, San Diego, CA, cat. ant-pm-2), 10% defined fetal bovine serum, heat inactivated (HyClone Laboratories Inc., Logan, UT, cat. SH30070.03HI), 50% L-WRN conditioned media (ATCC, cat. CRL-3276), 1.25 mM N-Acetyl-L-cysteine (Sigma-Aldrich, cat. A9165), 10 mM nicotinamide (Sigma-Aldrich, cat. N0636), 1X B-27 supplement (Thermo Fisher Scientific, cat. 17504044), 1X N-2 supplement (Thermo Fisher Scientific, cat. 17502048), and 10 microM Y-27632 dihydrochloride (Tocris Bioscience, Bristol, United Kingdom, cat. 1254). The 624824-186-R-J2-PDC line was cultured in 6C/Colon 1B media, which includes all 6A media components plus 50 ng/mL human EGF recombinant protein (Thermo Fisher Scientific, cat. PHG0311). […]

[1] = compound alone, run of 04/25/2023
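Note: compound exposure lasted seven days before viability was read.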
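Throughout, for viability, T/C: percent of vehicle DMSO treated spheroid viability so 100% = untreated.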

SMILES: C#Cc1c(F)ccc2cc(O)cc(-c3ncc4c(N5CC6CCC(C5)N6)nc(OCC56CCCN5CC(F)C6)nc4c3F)c12 (stereo not given)
- viability, T/C (compound 3.16 µM): 52.5% [middle of 4 runs]
- viability, T/C (compound 10 µM): 43.6% [middle of 4 runs]
- IC50 (curve of compound): 4.79 µM [middle of 4 runs]

SMILES: C=CC(=O)N1CCN(c2nc(=O)n(-c3c(C)ccnc3C(C)C)c3nc(-c4c(O)cccc4F)c(F)cc23)C(C)C1 (stereo not given)
- viability, T/C (compound 0.1 µM): 95.8% [middle of 4 runs]
- viability, T/C (compound 1 µM): 111% [middle of 4 runs]
- viability, T/C (compound 10 µM): 92.7% [middle of 4 runs]
- IC50 (curve of compound): > 10000 nM

SMILES: CC(=O)c1c(C)c2cnc(Nc3ccc(N4CCNCC4)cn3)nc2n(C2CCCC2)c1=O
- viability, T/C (compound 0.001 µM): 93.6% [middle of 4 runs]
- viability, T/C (compound 0.00316 µM): 89.5% [middle of 4 runs]
- viability, T/C (compound 0.01 µM): 87.7% [middle of 4 runs]
- viability, T/C (compound 0.0316 µM): 92.3% [middle of 4 runs]
- IC50 (curve of compound): > 100 nM and 56.6 nM

SMILES: CC(C)NCC(C(=O)N1CCN(c2ncnc3c2C(C)CC3O)CC1)c1ccc(Cl)cc1 (stereo not given)
- viability, T/C (compound 0.1 µM): 85.6% [middle of 4 runs]
- viability, T/C (compound 0.316 µM): 86.1% [middle of 4 runs]
- viability, T/C (compound 1 µM): 74.3% [middle of 4 runs]
- IC50 (curve of compound): > 10000 nM and 1870 nM and 5860 nM

SMILES: CC(C)n1nc(-c2ccc3oc(N)nc3c2)c2c(N)ncnc21
- viability, T/C (compound 0.000316 µM): 94.6% [middle of 4 runs]
- viability, T/C (compound 0.001 µM): 105% [middle of 4 runs]
- viability, T/C (compound 0.00316 µM): 106% [middle of 4 runs]
- viability, T/C (compound 0.0316 µM): 79.1% [middle of 4 runs]
- viability, T/C (compound 0.1 µM): 52.8% [middle of 4 runs]
- IC50 (curve of compound): > 100 nM and 90.5 nM

SMILES: CC(Cn1ccc(-c2ccc(C#N)c(Cl)c2)n1)NC(=O)c1cc(C(C)O)[nH]n1 (stereo not given)
- viability, T/C (compound 0.0316 µM): 90.6% [middle of 4 runs]
- viability, T/C (compound 0.316 µM): 101% [middle of 4 runs]
- IC50 (curve of compound): > 10000 nM

SMILES: CC(Nc1ccc2c(c1)OCCn1cc(N3C(=O)OCC3C(F)F)nc1-2)C(N)=O (stereo not given)
- viability, T/C (compound 0.0316 µM): 91% [middle of 8 runs]
- IC50 (compound alone, run of 04/24/2023): > 1000 nM

SMILES: CC(Nc1ncnc2nc[nH]c12)c1cc2cccc(Cl)c2c(=O)n1-c1ccccc1 (stereo not given)
- viability, T/C (compound 0.0316 µM): 99% [middle of 8 runs]
- viability, T/C (compound 10 µM): 80.4% [middle of 8 runs]
- IC50 [1]: > 10000 nM

SMILES: CC1(C)CCC(CN2CCN(c3ccc(C(=O)NS(=O)(=O)c4ccc(NCC5CCOCC5)c([N+](=O)[O-])c4)c(Oc4cnc5[nH]ccc5c4)c3)CC2)=C(c2ccc(Cl)cc2)C1
- viability, T/C (compound 0.0316 µM): 98.9% [middle of 4 runs]
- viability, T/C (compound 0.1 µM): 88.2% [middle of 4 runs]
- viability, T/C (compound 3.16 µM): 93.3% [middle of 4 runs]

SMILES: CC1(C)CCC(Nc2ncc(C(F)(F)F)c(-c3c[nH]c4c(P(C)(C)=O)c(C#N)ccc34)n2)CN1 (stereo not given)
- viability, T/C (compound 0.0316 µM): 43.3% [middle of 4 runs]
- viability, T/C (compound 0.1 µM): 39.1% [middle of 4 runs]
- viability, T/C (compound 0.316 µM): 34.6% [middle of 4 runs]
- viability, T/C (compound 1 µM): 38.5% and 38.1% and 35.8% (2×)
- viability, T/C (compound 3.16 µM): 35.1% [middle of 4 runs]
- viability, T/C (compound 10 µM): 7.76% [middle of 4 runs]
- IC50 (curve of compound): < 31.6 nM

SMILES: CCCS(=O)(=O)Nc1ccc(F)c(C(=O)c2c[nH]c3ncc(-c4ccc(Cl)cc4)cc23)c1F
- viability, T/C (compound 0.0316 µM): 98.8% [middle of 4 runs]
- viability, T/C (compound 0.1 µM): 111% [middle of 4 runs]
- viability, T/C (compound 0.316 µM): 108% [middle of 4 runs]
- viability, T/C (compound 3.16 µM): 110% [middle of 4 runs]
- viability, T/C (compound 10 µM): 31% [middle of 4 runs]
- IC50 (curve of compound): 7.38 µM [middle of 4 runs]

SMILES: CCN1CCN(Cc2ccc(Nc3ncc(F)c(-c4cc(F)c5nc(C)n(C(C)C)c5c4)n3)nc2)CC1
- viability, T/C (compound 0.01 µM): 89.4% [middle of 4 runs]
- viability, T/C (compound 0.316 µM): 49.4% [middle of 4 runs]
- IC50 (curve of compound): 269 nM [middle of 4 runs]

SMILES: CNC(=O)c1ccc(N2C(=S)N(c3ccc(C#N)c(C(F)(F)F)c3)C(=O)C2(C)C)cc1F
- viability, T/C (compound 0.0316 µM): 95.8% [middle of 4 runs]
- viability, T/C (compound 0.1 µM): 97.6% [middle of 4 runs]
- viability, T/C (compound 0.316 µM): 96.2% [middle of 4 runs]
- viability, T/C (compound 3.16 µM): 101% [middle of 4 runs]
- viability, T/C (compound 10 µM): 97.4% [middle of 4 runs]
- IC50 (curve of compound): > 10000 nM

SMILES: COc1c(OCCCN2CCOCC2)ccc2c3n(c(=NC(=O)c4cnc(N)nc4)nc12)CCN3
- viability, T/C (compound 0.00316 µM): 87.7% [middle of 8 runs]
- viability, T/C (compound 0.01 µM): 93.9% [middle of 8 runs]
- viability, T/C (compound 0.0316 µM): 82.8% [middle of 8 runs]
- viability, T/C (compound 0.1 µM): 52.5% [middle of 8 runs]
- viability, T/C (compound 0.316 µM): 38.6% [middle of 8 runs]
- viability, T/C (compound 1 µM): 39% [middle of 8 runs]
- IC50 [1]: 120 nM [middle of 8 runs]

SMILES: C[C@@H](NC(=O)c1ncnc(N)c1Cl)c1ncc(C(=O)Nc2cc(C(F)(F)F)c(Cl)cn2)s1
- viability, T/C (compound 0.0316 µM): 109% [middle of 4 runs]
- viability, T/C (compound 10 µM): 83.3% [middle of 4 runs]
- IC50 (curve of compound): > 10000 nM

SMILES: Cc1nc(NC(=O)N2CCCC2C(N)=O)sc1-c1ccnc(C(C)(C)C(F)(F)F)c1 (stereo not given)
- viability, T/C (compound 1 µM): 72.2% [middle of 8 runs]
- viability, T/C (compound 10 µM): 48.2% [middle of 8 runs]

SMILES: Cn1cnc2c(F)c(Nc3ccc(Br)cc3Cl)c(C(=O)NOCCO)cc21
- viability, T/C (compound 0.03 µM): 59% [middle of 4 runs]
- viability, T/C (compound 0.0949 µM): 48.3% [middle of 4 runs]
- viability, T/C (compound 0.3 µM): 33.4% [middle of 4 runs]
- viability, T/C (compound 0.949 µM): 27.6% [middle of 4 runs]
- viability, T/C (compound 3 µM): 20.4% [middle of 4 runs]
- IC50 (curve of compound): 55.5 nM [middle of 4 runs]

SMILES: Cn1ncc(Cl)c1-c1cc(C(=O)NC(CN)Cc2cccc(F)c2)sc1Cl (stereo not given)
- viability, T/C (compound 0.1 µM): 84.4% [middle of 4 runs]
- viability, T/C (compound 0.316 µM): 71.1% [middle of 4 runs]
- viability, T/C (compound 1 µM): 60.5% [middle of 4 runs]
- viability, T/C (compound 3.16 µM): 49.1% [middle of 4 runs]
- IC50 (curve of compound): > 10000 nM and 1850 nM

SMILES: Cn1nccc1Nc1nccc(-c2ccn(C(CO)c3ccc(Cl)c(F)c3)c(=O)c2)n1 (stereo not given)
- viability, T/C (compound 0.0316 µM): 101% [middle of 4 runs]
- viability, T/C (compound 0.316 µM): 68.3% [middle of 4 runs]
- viability, T/C (compound 1 µM): 52.5% [middle of 4 runs]
- viability, T/C (compound 3.16 µM): 43.4% [middle of 4 runs]
- viability, T/C (compound 10 µM): 37% [middle of 4 runs]
- IC50 (curve of compound): 1.06 µM [middle of 4 runs]

SMILES: Cn1ncnc1[C@H]1c2n[nH]c(=O)c3cc(F)cc(c23)N[C@@H]1c1ccc(F)cc1
- viability, T/C (compound 0.000316 µM): 91.7% [middle of 4 runs]
- viability, T/C (compound 0.001 µM): 113% and 106% (2×) and 109%
- viability, T/C (compound 0.01 µM): 101% [middle of 4 runs]
- viability, T/C (compound 0.0316 µM): 94.7% [middle of 4 runs]
- viability, T/C (compound 0.1 µM): 97.3% [middle of 4 runs]
- IC50 (curve of compound): > 100 nM
